The results in this text go back to US12486250B2, “Muscarinic receptor 4 antagonists and methods of use” (Neurocrine Biosciences, Inc., priority 2019, dated 2025).

Series [1] addresses T1, MDR1 (Multidrug resistance protein 1) (Homo sapiens, UniProt P08183).
T1 construct: host or cells: MDCK cells
Description: MDCK-MDR1 assay (apparent permeability and efflux ratio). Type of series: in vitro ADME. Particulars: for Papp A→B at 2 h, 5 µM / Papp B→A at 2 h, 5 μM: MDCK-MDR1, pH 7.4, 2 hours at 37° C.; for Papp A→B at 2 h, 5 µM: apical to basolateral; for Papp B→A at 2 h, 5 μM: basolateral to apical; for efflux ratio at 2 h, 5 µM: MDCK-MDR1, pH 7.4, Papp B>A/Papp A>B. How it is done: Apparent permeability and efflux ratios were generated by Absorption Systems LLP, Exton, PA MDCK cells transfected with human MDR1 (Multidrug resistance protein 1) were grown as monolayers on microporous membranes in 12-well assay plates. Each compound was evaluated at a single concentration equal to 5 μM. The assay buffer consisted of Hanks' balanced salt solution pH 7.4 containing 10 mM HEPES and 15 mM glucose. Test article diluted in assay buffer was dosed to the apical chambers of cell monolayer plates to determine apical to basolateral (A to B) permeability. Basolateral to apical (B to A) permeability was determined by addition of dosing solution to the basolateral chambers. […] Cell monolayers dosed with test article were incubated for 2 hours at 37° C., 5% CO2 in a humidified incubator. Samples were collected from both donor and receiver chambers at 2 hours then prepared for LC-MS/MS analysis using electrospray ionization. Duplicate measurements of A to B and B to A permeability were collected for each compound. Efflux ratio was calculated using the following formula: Papp B>A/Papp A>B. Controls were incorporated to ensure cell monolayer integrity (lucifer yellow) and activity of MDR1 protein (digoxin).

In series [2] the target is T2, human M2 receptor (Homo sapiens, UniProt P08172).
T2 construct: expressed in transfected cells; host or cells: CHO cells
T2 sequence (P08172 1-466): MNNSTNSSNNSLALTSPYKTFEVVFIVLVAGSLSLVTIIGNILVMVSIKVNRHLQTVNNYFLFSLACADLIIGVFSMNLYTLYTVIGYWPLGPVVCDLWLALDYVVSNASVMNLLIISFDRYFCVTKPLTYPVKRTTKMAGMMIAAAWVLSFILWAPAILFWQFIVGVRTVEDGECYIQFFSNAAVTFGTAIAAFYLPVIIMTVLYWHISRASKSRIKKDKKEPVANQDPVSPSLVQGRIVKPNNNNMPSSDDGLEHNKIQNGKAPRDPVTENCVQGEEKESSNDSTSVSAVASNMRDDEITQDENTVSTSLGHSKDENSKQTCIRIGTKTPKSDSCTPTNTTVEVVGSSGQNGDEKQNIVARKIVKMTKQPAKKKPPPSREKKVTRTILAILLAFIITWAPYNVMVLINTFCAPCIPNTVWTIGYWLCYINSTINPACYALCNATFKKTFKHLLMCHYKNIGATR
Description: Radioligand ([3H]N-methylscopolamine) binding assay, CHO cell membranes. The settings on record: 1.5 nM tritiated N-methylscopolamine, 90 minutes at 37° C.; read-out: Binding affinity (Ki) M2. How it is done: (§1) Binding affinity (Ki) of compounds was measured by inhibition of radioligand binding to membranes from CHO cells expressing human M1, M2, M3, M4 and M5 receptors. Membranes were prepared by nitrogen cavitation and differential centrifugation as previously described (Hoare et al., Mol. Pharmacol. 2003 March; 63(3): 751-65). The radioligand employed was tritiated N-methylscopolamine, used at a concentration of 1.5 nM. A dose-response of twelve concentrations of compound was used, ranging from […]. The assay buffer was 50 mM HEPES, 100 mM NaCl, 5 mM MgCl2, 1 mM ethylenediaminetetraacetic acid, pH-adjusted to pH 7.4. Membranes, radioligand and compound were incubated together for 90 minutes at 37° C., in a total volume of 150 μL in a 96-well plate. Receptor-bound radioligand was then collected by harvesting the assay over glass fiber filters pretreated with polyethylenimine to trap the cell membranes, using rapid vacuum filtration. Harvesting and radioactivity counting was conducted as previously described (see, e.g., Hoare et al., Mol. Pharmacol. 2003 63(3):751-65); Erratum at Mol. Pharmacol. 2005 July; 68(1): 260).

Series [3] addresses T3, human M4 receptor (Homo sapiens, UniProt P08173).
T3 construct: expressed in transfected cells; host or cells: CHO cells
T3 sequence (P08173 1-479): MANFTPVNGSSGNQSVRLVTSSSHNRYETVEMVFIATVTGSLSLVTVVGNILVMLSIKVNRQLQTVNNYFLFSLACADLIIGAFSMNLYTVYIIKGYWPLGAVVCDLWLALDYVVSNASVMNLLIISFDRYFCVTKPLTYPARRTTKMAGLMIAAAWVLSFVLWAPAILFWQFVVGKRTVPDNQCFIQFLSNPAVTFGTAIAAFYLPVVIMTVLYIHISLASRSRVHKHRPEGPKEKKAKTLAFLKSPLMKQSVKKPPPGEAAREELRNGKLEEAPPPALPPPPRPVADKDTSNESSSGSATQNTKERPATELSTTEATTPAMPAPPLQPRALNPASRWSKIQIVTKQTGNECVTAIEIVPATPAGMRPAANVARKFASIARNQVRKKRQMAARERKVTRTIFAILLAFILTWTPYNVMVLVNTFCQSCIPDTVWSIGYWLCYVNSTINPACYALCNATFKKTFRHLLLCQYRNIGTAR
The series is described as above. The settings on record: 1.5 nM tritiated N-methylscopolamine, 90 minutes at 37° C.; read-out: Binding affinity (Ki) M4. How it is done: as §1

Consider `C[C@@H]1CN(c2cnc(C(F)(F)F)cn2)C[C@H](C)N1C(=O)OCCC1CCN(Cc2ccccc2)CC1` [Compound 1, 2-(1-benzylpiperidin-4-yl)ethyl (2R,6S)-2,6-dimethyl-4-[5-(trifluoromethyl)pyrazin-2-yl]piperazine-1-carboxylate], for which, in series [1], the Papp A→B (as a rule, how fast a substance crosses the layer from the apical side) at 2 h, 5 µM was 15 ×10⁻⁶ cm/s; the Papp B→A (as a rule, the apparent permeability from the basolateral to the apical side of a cell layer) at 2 h, 5 μM stood at 21.3 ×10⁻⁶ cm/s; the efflux ratio – broadly, the permeability from basolateral to apical divided by that in the opposite direction, in the common usage – at 2 h, 5 µM turned out to be 1.42. Also, the Ki (as a rule, the dissociation constant of the complex between target and ligand, obtained from inhibition or displacement) in series [2] was 1860 nM. For the same compound, the Ki in series [3] was 1.8 nM.

As to `C[C@@H]1CN(c2cnc(C(F)(F)F)cn2)C[C@@H](C)N1C(=O)OCCC1CCN(Cc2ccccc2)CC1` [Compound 2, 2-(1-benzylpiperidin-4-yl)ethyl (2R,6R)-2,6-dimethyl-4-[5-(trifluoromethyl)pyrazin-2-yl]piperazine-1-carboxylate], in series [1], the Papp A→B at 2 h, 5 µM amounted to 17.5 ×10⁻⁶ cm/s; the Papp B→A at 2 h, 5 μM came out at 24.1 ×10⁻⁶ cm/s; the efflux ratio at 2 h, 5 µM was 1.38. Further, in series [2], the Ki stood at 271 nM. Besides, in series [3], the Ki was 4 nM.

Consider `C[C@@H]1CN(c2ncc(C#N)cn2)C[C@H](C)N1C(=O)NCCC1CCN(Cc2ccccc2)CC1` [Compound 3A], for which, in series [1], the Papp A→B at 2 h, 5 µM came to 0.53 ×10⁻⁶ cm/s; the Papp B→A at 2 h, 5 μM is 51.2 ×10⁻⁶ cm/s; the efflux ratio at 2 h, 5 µM worked out at 96.6. The Ki in series [2] was determined as 520 nM. Further, the Ki in series [3] is 3 nM.

As for `C[C@@H]1CN(c2cnc(C(F)(F)F)cn2)C[C@@H](C)N1C(=O)NCCC1CCN(Cc2ccccc2)CC1` [Compound 4A], in series [1], the apical-to-basolateral permeability (Papp A→B) at 2 h, 5 µM is 0.55 ×10⁻⁶ cm/s; the Papp B→A at 2 h, 5 μM amounted to 68.6 ×10⁻⁶ cm/s; the efflux ratio at 2 h, 5 µM stood at 125. In addition, the Ki in series [2] stood at 665 nM. The inhibitory constant (Ki) in series [3] turned out to be 5 nM.
